Measurements from patent US20230167127A1, “COMPOUNDS AND THEIR USE IN THE TREATMENT OF BACTERIAL INFECTION” (Hoffmann-La Roche Inc., priority 2020, published 2023).

Tested on: Escherichia coli ATCC 25922
Experiment: 50% growth inhibitory concentration (IC50) determination, Iso-Sensitest broth dilution
Assay type: cell-based
Settings: Escherichia coli, ATCC25922, 16 h, strain Escherichia coli ATCC 25922; 10-point broth dilution, optical density at 600 nm over 16 h; read-out: Escherichia coli growth inhibition IC50
Method in brief: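 Growth was tracked as optical density at 600 nm every 20 minutes for 16 h at 35±2° C. Compounds from DMSO stocks were serially diluted twofold over 10 points (e.g. 50–0.097 μM final) in Iso-Sensitest broth. Inhibition computed in log-phase growth to give IC50.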

Structure (SMILES) | IC50 [nM]
N#Cc1cc(OCC2(N)CC2)cc2c1CC(CNCCC1CN(c3cnc4c(n3)NC(=O)CO4)C(=O)O1)C2 (stereo not drawn) [Example 186, 6-((1-aminocyclopropyl)methoxy)-2-(((2-(2-oxo-3-(3-oxo-3,4-dihydro-2H-pyrazino[2,3-b][1,4]oxazin-6-yl)oxazolidin-5-yl)ethyl)amino)methyl)-2,3-dihydro-1H-indene-4-carbonitrile] | < 97.7
N#Cc1cc(OCC2CCN2)cc2c1CC(CNCCC1CN(c3ccc4c(n3)NC(=O)CO4)C(=O)O1)C2 (stereo not drawn) [Example 187, 6-(azetidin-2-ylmethoxy)-2-[[2-[2-oxo-3-(3-oxo-4H-pyrido[3,2-b][1,4]oxazin-6-yl)-1,3-oxazolidin-5-yl]ethylamino]methyl]-2,3-dihydro-1H-indene-4-carbonitrile] | 121
N#Cc1cc(OCCN)cc2c1CC(CNCCC1CN(c3ccc4c(n3)NC(=O)CO4)C(=O)O1)C2 (stereo not drawn) [Example 188, 6-(2-aminoethoxy)-2-[[2-[2-oxo-3-(3-oxo-4H-pyrido[3,2-b][1,4]oxazin-6-yl)-1,3-oxazolidin-5-yl]ethylamino]methyl]-2,3-dihydro-1H-indene-4-carbonitrile] | < 97.7
Cc1nc(OCCNC2CC2)c(C)c2c1CC(CNCCC1CN(c3ccc4c(n3)NC(=O)CO4)C(=O)O1)C2 (stereo not drawn) [Example 189, 6-[5-[2-[[3-[2-(cyclopropylamino)ethoxy]-1,4-dimethyl-6,7-dihydro-5H-cyclopenta[c]pyridin-6-yl]methylamino]ethyl]-2-oxo-1,3-oxazolidin-3-yl]-4H-pyrido[3,2-b][1,4]oxazin-3-one] | 99.5
N#Cc1cc(OC2CNC2)cc2c1CC(CNCCC1CN(c3ccc4c(n3)NC(=O)CO4)C(=O)O1)C2 (stereo not drawn) [Example 190, 6-(azetidin-3-yloxy)-2-[[2-[2-oxo-3-(3-oxo-4H-pyrido[3,2-b][1,4]oxazin-6-yl)-1,3-oxazolidin-5-yl]ethylamino]methyl]-2,3-dihydro-1H-indene-4-carbonitrile; 2,2,2-trifluoroacetic acid] | < 97.7
N#Cc1cc(OCC2CNC2)cc2c1CC(CNCCC1CN(c3ccc4c(n3)NC(=O)CO4)C(=O)O1)C2 (stereo not drawn) [Example 191, 6-(azetidin-3-ylmethoxy)-2-[[2-[2-oxo-3-(3-oxo-4H-pyrido[3,2-b][1,4]oxazin-6-yl)-1,3-oxazolidin-5-yl]ethylamino]methyl]-2,3-dihydro-1H-indene-4-carbonitrile; 2,2,2-trifluoroacetic acid] | 295
CC(N)COc1cc(C#N)c2c(c1)CC(CNCCC1CN(c3ccc4c(n3)NC(=O)CO4)C(=O)O1)C2 (stereo not drawn) [Example 192, 6-(2-aminopropoxy)-2-[[2-[2-oxo-3-(3-oxo-4H-pyrido[3,2-b][1,4]oxazin-6-yl)-1,3-oxazolidin-5-yl]ethylamino]methyl]-2,3-dihydro-1H-inclene-4-carbonitrile; 2,2,2-trifluoroacetic acid] | < 97.7
CC(N)COc1cc(C#N)c2c(c1)CC(CNCCC1CN(c3cnc4c(n3)NC(=O)CO4)C(=O)O1)C2 (stereo not drawn) [Example 193, 6-(2-aminopropoxy)-2-(((2-(2-oxo-3-(3-oxo-3,4-dihydro-2H-pyrazine[2,3-b][1,4]oxazin-6-yl)oxazolidin-5-yl)ethyl)amino)methyl)-2,3-dihydro-1H-indene-4-carbonitrile; 2,2,2-trifluoroacetic acid] | < 97.7
N#Cc1cc(OCC2(N)CC2)cc2c1CC(CCNCC1CN(c3ccc4c(n3)NC(=O)CO4)C(=O)O1)C2 (stereo not drawn) [Example 196, 6-((1-aminocyclopropyl)methoxy)-2-(2-(((2-oxo-3-(3-oxo-3,4-dihydro-2H-pyrido[3,2-b][1,4]oxazin-6-yl)oxazolidin-5-yl)methyl)amino)ethyl)-2,3-dihydro-1H-indene-4-carbonitrile] | < 97.7
N#Cc1cc(OCC2(N)CC2)cc2c1CC(CCN1CC3(C1)CN(c1ccc4c(n1)NC(=O)CO4)C(=O)O3)C2 (stereo not drawn) [Example 197, 6-((1-aminocyclopropyl)methoxy)-2-(2-(6-oxo-7-(3-oxo-3,4-dihydro-2H-pyrido[3,2-b][1,4]oxazin-6-yl)-5-oxa-2,7-diazaspiro[3.4]octan-2-yl)ethyl)-2,3-dihydro-1H-indene-4-carbonitrile] | < 97.7
N#Cc1c(OCC2(N)CC2)ncc2c1CC(CNCCC1CN(c3ccc4c(n3)NC(=O)CO4)C(=O)O1)C2 (stereo not drawn) [Example 198, 3-[(1-aminocycopropyl)methoxy]-6-[[2-[2-oxo-3-(3-oxo-4H-pyrido[3,2-b][1,4]oxazin-6-yl)-1,3-oxazolidin-5-yl]ethylamino]methyl]-6,7-dihydro-5H-cyclopenta[c]pyridine-4-carbonitrile] | < 97.7
Cc1nc(OCC2COCCN2)c(C)c2c1CC(CNCCC1CN(c3ccc4c(n3)NC(=O)CO4)C(=O)O1)C2 (stereo not drawn) [Example 199, 6-[5-[2-[[1,4-dimethyl-3-(morpholin-3-ylmethoxy)-6,7-dihydro-5H-cyclopenta[c]pyridin-6-yl]methylamino]ethyl]-2-oxo-1,3-oxazolidin-3-yl]-4H-pyrido[3,2-b][1,4]oxazin-3-one] | 88.4
Cc1nc(OC[C@@H]2CCN2)c(C)c2c1CC(CNCCC1CN(c3ccc4c(n3)NC(=O)CO4)C(=O)O1)C2 (stereo partly drawn) [Example 200, 6-[5-[2-[[3-[[(2S)-azetidin-2-yl]methoxy]-1,4-dimethyl-6,7-dihydro-5H-cyclopenta[c]pyridin-6-yl]methylamino]ethyl]-2-oxo-1,3-oxazolidin-3-yl]-4H-pyrido[3,2-b][1,4]oxazin-3-one] | 320
Cc1nc(OCCNC(C)C)c(C)c2c1CC(CNCCC1CN(c3ccc4c(n3)NC(=O)CO4)C(=O)O1)C2 (stereo not drawn) [Example 201, 6-[5-[2-[[1,4-dimethyl-3-[2-(propan-2-ylamino)ethoxy]-6,7-dihydro-5H-cyclopenta[c]pyridin-6-yl]methylamino]ethyl]-2-oxo-1,3-oxazolidin-3-yl]-4H-pyrido[3,2-b][1,4]oxazin-3-one] | 157
COCCNCCOc1nc(C)c2c(c1C)CC(CNCCC1CN(c3ccc4c(n3)NC(=O)CO4)C(=O)O1)C2 (stereo not drawn) [Example 202, 6-[5-[2-[[3-[2-(2-methoxyethylamino)ethoxy]-1,4-dimethyl-6,7-dihydro-5H-cyclopenta[c]pyridin-6-yl]methylamino]ethyl]-2-oxo-1,3-oxazolidin-3-yl]-4H-pyrido[3,2-b][1,4]oxazin-3-one] | 135
CC(C)(N)COc1cc(C#N)c2c(c1)CC(CNCCC1CN(c3ccc4c(n3)NC(=O)CO4)C(=O)O1)C2 (stereo not drawn) [Example 203, 6-(2-amino-2-methylpropoxy)-2-(((2-(2-oxo-3-(3-oxo-3,4-dihydro-2H-pyrido[3,2-b][1,4]oxazin-6-yl)oxazolidin-5-yl)ethyl)amino)methyl)-2,3-dihydro-1H-indene-4-carbonitrile; 2,2,2-trifluoroacetic acid] | < 97.7
CC(C)(N)COc1cc(C#N)c2c(c1)CC(CNCCC1CN(c3cnc4c(n3)NC(=O)CO4)C(=O)O1)C2 (stereo not drawn) [Example 204, 6-(2-amino-2-methylpropoxy)-2-(((2-(2-oxo-3-(3-oxo-3,4-dihydro-2H-pyrazino[2,3-b][1,4]oxazin-6-yl)oxazolidin-5-yl)ethyl)amino)methyl)-2,3-dihydro-1H-indene-4-carbonitrile] | < 97.7
Cc1nc(OCCN)cc2c1CC(CNCCC1CN(c3ccc4c(n3)NC(=O)CO4)C(=O)O1)C2 (stereo not drawn) [Example 209, 6-[5-[2-[[3-(2-aminoethoxy)-1-methyl-6,7-dihydro-5H-cyclopenta[c]pyridin-6-yl]methylamino]ethyl]-2-oxo-1,3-oxazolidin-3-yl]-4H-pyrido[3,2-b][1,4]oxazin-3-one] | 845
Cc1c(OCC2(N)CC2)nc(C#N)c2c1CC(CNCCC1CN(c3ccc4c(n3)NC(=O)CO4)C(=O)O1)C2 (stereo not drawn) [Example 213, 3-[(1-aminocyclopropyl)methoxy]-4-methyl-6-[[2-[2-oxo-3-(3-oxo-4H-pyrido[3,2-b][1,4]oxazin-6-yl)-1,3-oxazolidin-5-yl]ethylamino]methyl]-6,7-dihydro-5H-cyclopenta[c]pyridine-1-carbonitrile] | < 97.7
Cc1nc(OCC2(N)CC2)c(C#N)c2c1CC(CNCCC1CN(c3ccc4c(n3)NC(=O)CO4)C(=O)O1)C2 (stereo not drawn) [Example 214, 3-[(1-aminocyclopropyl)methoxy]-1-methyl-6-[[2-[2-oxo-3-(3-oxo-4H-pyrido[3,2-b][1,4]oxazin-6-yl)-1,3-oxazolidin-5-yl]ethylamino]methyl]-6,7-dihydro-5H-cyclopenta[c]pyridine-4-carbonitrile] | < 97.7
Cc1nc(OCC2(N)CC2)c(C#N)c2c1CC(CN1CCC3(CC1)CN(c1ccc4c(n1)NC(=O)CO4)C(=O)O3)C2 (stereo not drawn) [Example 215, 3-[(1-aminocyclopropyl)methoxy]-1-methyl-6-[[2-oxo-3-(3-oxo-4H-pyrido[3,2-b][1,4]oxazin-6-yl)-1-oxa-3,8-diazaspiro[4.5]decan-8-yl]methyl]-6,7-dihydro-5H-cyclopenta[c]pyridine-4-carbonitrile] | < 97.7
Cc1cnc(-c2nc(OCC3(N)CC3)c(C)c3c2CC(CNCCC2CN(c4ccc5c(n4)NC(=O)CO5)C(=O)O2)C3)s1 (stereo not drawn) [Example 216, 6-[5-[2-[[3-[(1-aminocyclopropyl)methoxy]-4-methyl-1-(5-methyl-1,3-thiazol-2-yl)-6,7-dihydro-5H-cyclopenta[c]pyridin-6-yl]methylamino]ethyl]-2-oxo-1,3-oxazolidin-3-yl]-4H-pyrido[3,2-b][1,4]oxazin-3-one] | 211
Cc1c(OCC2(N)CC2)ncc2c1CC(CNCCC1CN(c3ccc4c(n3)NC(=O)CO4)C(=O)O1)C2 (stereo not drawn) [Example 217, 6-[5-[2-[[3-[(1-aminocyclopropyl)methoxy]-4-methyl-6,7-dihydro-5H-cyclopenta[c]pyridin-6-yl]methylamino]ethyl]-2-oxo-1,3-oxazolidin-3-yl]-4H-pyrido[3,2-b][1,4]oxazin-3-one] | < 97.7
Cc1c(OCC2(N)CC2)nc(-c2nccs2)c2c1CC(CNCCC1CN(c3ccc4c(n3)NC(=O)CO4)C(=O)O1)C2 (stereo not drawn) [Example 218, 6-[5-[2-[[3-[(1-aminocyclopropyl)methoxy]-4-methyl-1-(1,3-thiazol-2-yl)-6,7-dihydro-5H-cyclopenta[c]pyridin-6-yl]methylamino]ethyl]-2-oxo-1,3-oxazolidin-3-yl]-4H-pyrido[3,2-b][1,4]oxazin-3-one] | < 97.7
